From US11129801B2 (SigmaThera SAS, priority 2016, dated 2021)

Columns and labels:
[1] = test system: GFAP; experiment: ELISA of cortical GFAP, Aβ25-35 mouse model; type: in vivo; settings: Experiment 2, post-treatment, 1 mg/kg
Protocol: (§1) In Experiment 2, twelve mice per experimental group were administered Sc.Aβ or Aβ25-35-amyloid peptide on day 0 by i.c.v. injection. […] Animals were tested at day 7 and later.
(§2) For each of Experiments 1-4, on day 7, all animals were tested for the spontaneous alternation performance in the Y-maze test, an index of spatial working memory. On day 8 and 9, the contextual long-term memory of the animals was assessed using the step-through type passive avoidance procedure. On day 9, immediately after the retention session, animals were sacrificed by decapitation and the hippocampus and cortex dissected out. Lipid peroxidation was analyzed in the hippocampus, whereas neuroinflammation, apoptosis, amyloid burden and hyperphosphorylation of tau protein were analyzed in cortex.
(§3) Enzyme-linked immunosorbant assay (ELISA) assays: Contents in GFAP, Caspase 12, Amyloid-beta 1-40, Amyloid-beta 1-42, Total Tau, and pTau on Ser199 were analyzed by using commercial ELISA assay kit. • GFAP: Supplier: USCNK #Ref: SEA068Mu • Total Tau: Supplier: Novex #Ref: KMB7011 • pTau (S199): Supplier: Novex #Ref: KMB7041 • Amyloid beta 1-40: Supplier: Novex #Ref: KMB3481 • Amyloid beta 1-42: Supplier: Novex #Ref: KMB3441 • Caspase-12: Supplier: LSBio #Ref: LS-F11023 • BAX: Supplier: Euromedex#Ref: SEB343Mu • BCL2: Supplier: Euromedex #Ref: SEA778Mu […]

[2] = test system: Aβ25-35 mouse model of Alzheimer's disease; experiment: Step-through passive avoidance test, Aβ25-35 mouse model; type: in vivo
Protocol: The compound efficacy was evaluated 7 days after the peptide administration on the attenuation of the Aβ25-35-induced learning deficits (spatial working memory using the spontaneous alternation in the Y-maze test, and contextual long-term memory using the passive avoidance test).
The mice were tested 7 days post injection or at the indicated time points.
as §1
Each of these doses was, by itself, unable to produce any protective effect. The synergy/additivity/antagonism was evaluated by calculating the combination index. […] Animals were then tested at day 7 and later.
as §2
The homogeneous oligomeric preparation of Aβ25-35 peptide was performed according to the AMYLGEN's own procedure. Each mouse was anesthetized with isoflurane 2.5% and injected i.c.v. with Aβ25-35 peptide (9 nmol/mouse) or Sc.Aβ peptide (9 nmol/mouse), in a final volume of 3 μl/mouse, according to the previously described method (Maurice T, et al. (1996). Brain Res. 706(2): 181-193, Maurice T, et al. (1998) Neuroscience 83(2): 413-428, Meunier J, et al. (2006) British J. Pharmacol. 149(8): 998-1012, Villard V, et al. (2009) Neuropsychopharmacology 34(6): 1552-1566, Villard V, et al. (2011) J. Pharmacol. Sci. 115(3): 279-292).
Animals: Male Swiss mice, 6 weeks old and weighing 30-35 g, from JANVIER (Saint Berthevin, France), were kept for housing and experiments took place within the animal facility building of the University of Montpellier 2 (CECEMA, Office of Veterinary Services agreement #B-34-172-23). Animals were housed in groups with access to food and water ad libitum, except during behavioral experiments. They were kept in a temperature and humidity controlled animal facility on a 12 h/12 h light/dark cycle (lights off at 07:00 pm). […]
Passive avoidance test: The passive avoidance task was used to evaluate learning and memory in mice treated with igmesine. […] The step-through latency, that is, the latency spent to enter the dark compartment, and the number of vocalizations was recorded. […]

[3] = test system: Aβ1-42; experiment: ELISA of cortical Aβ1-42, Aβ25-35 mouse model; type: in vivo; settings: Experiment 2, post-treatment
Protocol: as §1, §2, §3

[4] = test system: sigma-1 receptor / BiP complex; experiment: Dissociation of BiP from sigma-1 receptor in CHO cells; type: cell-based; settings: 1 μM and 10 μM, 30 min
Protocol: CHO cells were grown in a 6-well plates and treated with the compounds in culture medium at 37° C. for 30 min at 1 μM and 10 μM final concentration. The reaction was stopped by medium removal and adding 3 mL PBS at 37° C. CHO cells were harvested and suspended in 50 mM HEPES (pH7.4) followed by cross-linking with 50 μg/ml of dithio (bis) succinimidyl propionate (Thermo Fisher Scientific, Waltham, Mass.) for 30 min at 4° C. The reaction was stopped by adding Tris-HCl (pH 8.8, final 50 mM). Fifteen minutes after incubation on ice, cells were lysed with RIPA buffer [50 mM Tris (pH7.4), 150 mM NaCl, 1% Triton X-100, 0.3% sodium deoxycholate, 0.1% SDS, protease inhibitor cocktail (Roche Complete)]. After centrifugation at 12,000 g, 1 min, the supernatant was incubated overnight at 4° C. with Sig-1R antibody (Abcam). The cell lysate was incubated with Sepharose protein-A (Invitrogen) for 90 min. After centrifugation at 12,000 g, 1 min, the supernatant was discarded and the pellet was washed in 0.5 mL RIPA buffer. After a second centrifugation at 12,000 g, 20 min, the supernatant was discarded and the pellet was washed in 0.5 mL 2× Sample buffer/bMCE buffer. Following a third centrifugation at 12,000 g, 1 min, the supernatant was analysed by ELISA assay, according to the manufacturer's protocol (USCNK #SEC343Mu).

[5] = test system: Bax/Bcl-2; experiment: ELISA of cortical Bax/Bcl-2 ratio, Aβ25-35 mouse model; type: in vivo; settings: Experiment 2, post-treatment, 1 mg/kg
Protocol: as §1, §2, §3

[6] = Experiment 1, pre-treatment, 0.1, 0.3, 1 mg/kg i.p.
[7] = Experiment 2, post-treatment day 1 to day 6

CCC(C/C=C/c1ccccc1)(c1ccccc1)N(C)CC1CC1 (single isomer, unassigned; (+)) [igmesine, (+)-(E)-N-(cyclopropylmethyl)-N-methyl-3,6-diphenylhex-5-en-3-amine]
cortical GFAP elevation [1]: fully normalized | prevention of passive avoidance deficits, escape latency [2, 6]: at the highest dose | prevention of passive avoidance deficits, step-through latency [2, 6]: significant prevention at the two highest dose tested | prevention of passive avoidance deficits, escape latency [2, 7]: significant prevention at the highest dose tested | prevention of passive avoidance deficits, step-through latency [2, 7]: significant prevention at the highest dose tested | cortical Aβ1-42 elevation [3]: fully normalized | dissociation of BiP from sigma-1 receptor [4]: produced the dissociation of BiP from sigma-1 receptor in a dose-dependent manner | cortical Bax/Bcl-2 ratio elevation [5]: fully normalized
